Measured values taken from ChEMBL document CHEMBL1201862, “PubChem BioAssay data set” (2004).
The source made the active and inactive calls.

What was measured:
[1] = HGIII-sPLA2 enzyme inhibition potency – biochemical, QFRET, IC50, dose response (AID 743457);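 also: green fluorescence rise as the enzyme cleaves BODIPY PC-A2 in liposomes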
[2] = Luminescence Cell-Based Dose Retest to Confirm Inhibitors of Cancer Stem Cells. [Related pubchem assays (depositor defined):AID2717, AID2721]; assay type: functional; conditions: Homo sapiens
[3] = biological target: RNA-editing ligase 1, mitochondrial (Trypanosoma brucei brucei, UniProt P86926); test: inhibition of trypanosome RNA editing ligase – biochemical, fluorescence, Trypanosoma brucei, dose response (AID 1117295); assay type: functional
[4] = biological target: Eukaryotic translation initiation factor 4E (Mus musculus, UniProt P63073); test: blockers of eIF4G binding by eIF4E – biochemical, TR-FRET, dose response (AID 855); assay type: functional;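 also: potency for disrupting eIF4E binding to eIF4GI seen as loss of FRET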
cells [5] = test: cells
[6] = biological target: Oxysterols receptor LXR-beta (Homo sapiens, UniProt P55055); assay type: functional, cell-based;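 also: Cell-based luminescence dose-response assay of agonist activity at LXR, run as a confirmatory counterscreen to a daf-12 agonist screen; HEK293 cells with Gal4-LXR fusion and GAL4-driven luciferase reporter; agonist potency from rising luciferase signal of a Gal4-LXR reporter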
[7] = biological target: T1, DNA repair protein RAD52 homolog (Homo sapiens, UniProt P43351); assay type: functional, biochemical
T1 sequence (P43351 whole entry): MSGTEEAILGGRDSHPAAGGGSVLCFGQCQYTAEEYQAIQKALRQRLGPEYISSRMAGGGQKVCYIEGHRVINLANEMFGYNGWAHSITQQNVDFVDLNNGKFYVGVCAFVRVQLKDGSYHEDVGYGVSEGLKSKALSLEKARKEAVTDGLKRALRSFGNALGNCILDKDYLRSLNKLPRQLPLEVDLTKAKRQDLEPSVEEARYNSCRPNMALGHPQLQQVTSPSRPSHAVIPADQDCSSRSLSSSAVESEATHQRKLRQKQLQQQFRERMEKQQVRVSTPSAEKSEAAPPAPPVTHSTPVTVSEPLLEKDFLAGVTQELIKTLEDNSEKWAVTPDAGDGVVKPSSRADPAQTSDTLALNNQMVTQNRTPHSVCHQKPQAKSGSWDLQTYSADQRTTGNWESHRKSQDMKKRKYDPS

[8] = NIH3T3 cell viability loss – ATP luminescence, mouse fibroblasts, counter-screen, dose response (AID 2010); assay type: functional, cell-based;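 also: cells exposed to compound for about 90 hours before reading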
[9] = cytotoxicity toward MDA-MB-231 breast cancer cells – cell-based, CellTiter-Glo luminescence, cherry-pick, cytotoxicity control for RAD54 inhibitor project, dose response (AID 651692); assay type: functional
[10] = Trypanosoma cruzi growth suppression in host cells – NIH3T3 host cells, beta-gal luminescence, confirmation (AID 2044); assay type: functional, cell-based;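 also: intracellular parasites grown in NIH/3T3 mouse fibroblasts as host cells; luminescent beta-galactosidase reporter signal from transgenic T. cruzi replicating inside host cells; inhibitors lower the luminescence signal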
[11] = biological target: T2, DNA repair and recombination protein RAD54-like (Homo sapiens, UniProt Q92698); test: RAD54 Holliday junction migration blockers – biochemical, fluorescence, cherry-picked samples, dose series, confirmation (AID 651657); assay type: functional
T2 sequence (Q92698 whole entry): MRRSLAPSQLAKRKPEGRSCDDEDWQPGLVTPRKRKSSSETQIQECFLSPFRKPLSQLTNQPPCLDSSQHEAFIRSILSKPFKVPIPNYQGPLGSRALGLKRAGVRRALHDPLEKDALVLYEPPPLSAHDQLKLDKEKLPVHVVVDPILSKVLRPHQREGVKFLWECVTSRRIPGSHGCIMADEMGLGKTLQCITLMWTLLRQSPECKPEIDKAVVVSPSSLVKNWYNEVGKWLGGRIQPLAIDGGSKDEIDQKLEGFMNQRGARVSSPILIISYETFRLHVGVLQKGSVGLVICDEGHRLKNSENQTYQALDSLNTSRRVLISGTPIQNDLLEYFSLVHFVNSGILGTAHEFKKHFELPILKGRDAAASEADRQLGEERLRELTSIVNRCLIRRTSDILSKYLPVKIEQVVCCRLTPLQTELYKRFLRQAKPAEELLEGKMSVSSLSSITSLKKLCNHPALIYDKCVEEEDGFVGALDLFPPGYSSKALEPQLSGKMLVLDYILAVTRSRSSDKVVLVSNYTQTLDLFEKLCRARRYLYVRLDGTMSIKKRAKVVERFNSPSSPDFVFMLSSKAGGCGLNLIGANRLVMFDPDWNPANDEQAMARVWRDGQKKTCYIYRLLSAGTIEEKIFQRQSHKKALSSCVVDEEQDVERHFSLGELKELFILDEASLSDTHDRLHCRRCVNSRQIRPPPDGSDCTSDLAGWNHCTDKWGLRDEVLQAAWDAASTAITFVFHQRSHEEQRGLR

[12] = general mammalian cell viability loss – inhibitor set, cherry-pick, set 2, cytotoxicity control for miR-122 modulator project, dose response (AID 720697); assay type: functional, cell-based
cells [13] = assay type: functional, cell-based
[14] = biological target: T3, Sentrin-specific protease 1 (Homo sapiens, UniProt Q9P0U3); test: Dose response confirmation of small molecule inhibitors of the catalytic domain of the SUMO protease, SENP1 in a FRET assay.; assay type: functional; conditions: read-out: IC50_Mean
T3 sequence (Q9P0U3 whole entry): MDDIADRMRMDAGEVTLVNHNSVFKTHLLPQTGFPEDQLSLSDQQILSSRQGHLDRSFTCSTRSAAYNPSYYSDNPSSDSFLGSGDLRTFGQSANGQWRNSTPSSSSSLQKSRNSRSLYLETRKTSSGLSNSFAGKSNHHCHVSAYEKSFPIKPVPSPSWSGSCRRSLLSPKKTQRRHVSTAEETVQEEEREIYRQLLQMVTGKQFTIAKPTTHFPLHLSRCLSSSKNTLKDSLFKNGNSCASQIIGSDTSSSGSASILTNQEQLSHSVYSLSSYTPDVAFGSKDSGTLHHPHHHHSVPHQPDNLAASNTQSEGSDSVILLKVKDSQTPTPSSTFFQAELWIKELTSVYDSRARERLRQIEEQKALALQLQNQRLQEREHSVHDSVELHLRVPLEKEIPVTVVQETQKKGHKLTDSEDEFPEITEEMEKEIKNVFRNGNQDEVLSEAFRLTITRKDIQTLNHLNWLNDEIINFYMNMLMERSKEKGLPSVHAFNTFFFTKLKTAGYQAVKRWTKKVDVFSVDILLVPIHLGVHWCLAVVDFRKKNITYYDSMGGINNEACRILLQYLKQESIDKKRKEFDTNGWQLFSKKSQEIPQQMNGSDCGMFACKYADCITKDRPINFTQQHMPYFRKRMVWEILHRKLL

[15] = biological target: T3, Sentrin-specific protease 1; test: SENP1 catalytic domain blockers, concentration series – biochemical, kinetic FRET, dose response (AID 651697); assay type: functional; conditions: read-out: IC50_Mean
[16] = inhibition of ADAM10 peptide cleavage – biochemical, FRET peptide substrate, recombinant human ADAM10, selectivity assay for ADAM17 exosite inhibitor project, dose response (AID 743259);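 also: ADAM10 enzyme cleaving a FRET peptide substrate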
[17] = biological target: Disintegrin and metalloproteinase domain-containing protein 17 (Homo sapiens, UniProt P78536); test: exosite inhibitors of ADAM17, dose response, biochemical (AID 743260)
[18] = biological target: T4, Sentrin-specific protease 8 (Homo sapiens, UniProt Q96LD8); assay type: functional
T4 sequence (Q96LD8 whole entry): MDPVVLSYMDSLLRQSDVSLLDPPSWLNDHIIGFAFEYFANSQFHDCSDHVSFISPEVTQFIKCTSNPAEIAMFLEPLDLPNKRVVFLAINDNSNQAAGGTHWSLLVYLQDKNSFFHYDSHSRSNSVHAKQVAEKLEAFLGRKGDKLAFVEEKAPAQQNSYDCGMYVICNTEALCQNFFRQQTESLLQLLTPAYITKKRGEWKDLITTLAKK

[19] = biological target: T4, Sentrin-specific protease 8; assay type: functional; remark: listed apart in the source
[20] = biological target: Long-chain-fatty-acid--AMP ligase FadD28 (Mycobacterium tuberculosis, UniProt P9WQ59); test: Fluorescence polarization aasay to screen for inhibitors that compete for the binding of FadD28 to a bisubstrate Measured in Biochemical System Using Plate Reader - 2147-01_Inhibitor_Dose_CherryPick_Activity.; assay type: functional, Mycobacterium tuberculosis H37Rv
[21] = OVCAR-3 cell viability loss – plate reader, dry powder samples, PAX8 inhibitor project, dose response (AID 743044); assay type: functional, cell-based
[22] = OVCAR8 cell viability loss – plate reader, dry powder samples, PAX8 project, dose response (AID 743197); assay type: functional, cell-based; conditions: OVCAR-8
Paired box protein Pax-8 = Paired box protein Pax-8 (Homo sapiens, UniProt Q06710); test: PAX8 transcriptional activity inhibition in RMG-I – RMG-I cells, luciferase, cherry-pick, dose response (AID 687027); assay type: functional, cell-based;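 also: luciferase reporter driven by Pax8 target thyroperoxidase promoter measured by SteadyGlo luminescence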
[23] = biological target: ADP-ribosylation factor GTPase-activating protein 1 (Rattus norvegicus, UniProt Q62848); test: Fluorescence polarization-based biochemical high throughput dose response screening assay to identify inhibitors of ADP-ribosylation factor GTPase activating protein 1 (ARFGAP1).; assay type: functional
[24] = biological target: Arf-GAP with SH3 domain, ANK repeat and PH domain-containing protein 1 (Homo sapiens, UniProt Q9ULH1); assay type: functional;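 also: biochemical fluorescence polarization dose–response screen measuring inhibition of ASAP1; ASAP1 GAP domain stimulating GTP hydrolysis by truncated human ARF1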
[25] = biological target: Photoreceptor-specific nuclear receptor (Homo sapiens, UniProt Q9Y5X4); assay type: functional, cell-based;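 also: CHO-S cells with Gal4-NCOR and VP16-NR2E3 two-hybrid luciferase reporter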
[26] = viability loss in HeLa cells – cytotoxicity control for MgcRacGAP inhibitor project, dose response (AID 624300); assay type: functional
[27] = biological target: T5, Rac GTPase-activating protein 1 (Homo sapiens, UniProt Q9H0H5); test: blockers of MgcRacGAP-driven Rac1 GTP hydrolysis – biochemical, ADP Hunter fluorescence, primary and confirmatory, confirmation (AID 624330); assay type: functional
T5 sequence (Q9H0H5 whole entry): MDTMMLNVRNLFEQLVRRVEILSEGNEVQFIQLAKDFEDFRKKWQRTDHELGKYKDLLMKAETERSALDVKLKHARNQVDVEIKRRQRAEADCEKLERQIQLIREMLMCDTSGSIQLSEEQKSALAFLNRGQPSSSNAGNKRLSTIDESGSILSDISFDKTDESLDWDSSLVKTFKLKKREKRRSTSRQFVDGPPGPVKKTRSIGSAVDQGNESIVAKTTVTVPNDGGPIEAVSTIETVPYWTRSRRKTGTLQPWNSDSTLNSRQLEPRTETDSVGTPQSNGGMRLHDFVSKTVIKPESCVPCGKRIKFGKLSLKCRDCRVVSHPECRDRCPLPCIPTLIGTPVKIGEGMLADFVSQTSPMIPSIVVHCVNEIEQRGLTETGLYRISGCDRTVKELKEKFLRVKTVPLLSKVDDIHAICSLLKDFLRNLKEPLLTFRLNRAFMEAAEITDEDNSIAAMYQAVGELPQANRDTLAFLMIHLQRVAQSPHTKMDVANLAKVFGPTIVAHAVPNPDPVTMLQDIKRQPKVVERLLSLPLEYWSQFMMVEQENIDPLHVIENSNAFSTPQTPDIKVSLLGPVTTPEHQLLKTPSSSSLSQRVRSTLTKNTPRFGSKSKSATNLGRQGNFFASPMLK

Long-chain-fatty-acid--AMP ligase FadD28, sequence (P9WQ59 whole entry): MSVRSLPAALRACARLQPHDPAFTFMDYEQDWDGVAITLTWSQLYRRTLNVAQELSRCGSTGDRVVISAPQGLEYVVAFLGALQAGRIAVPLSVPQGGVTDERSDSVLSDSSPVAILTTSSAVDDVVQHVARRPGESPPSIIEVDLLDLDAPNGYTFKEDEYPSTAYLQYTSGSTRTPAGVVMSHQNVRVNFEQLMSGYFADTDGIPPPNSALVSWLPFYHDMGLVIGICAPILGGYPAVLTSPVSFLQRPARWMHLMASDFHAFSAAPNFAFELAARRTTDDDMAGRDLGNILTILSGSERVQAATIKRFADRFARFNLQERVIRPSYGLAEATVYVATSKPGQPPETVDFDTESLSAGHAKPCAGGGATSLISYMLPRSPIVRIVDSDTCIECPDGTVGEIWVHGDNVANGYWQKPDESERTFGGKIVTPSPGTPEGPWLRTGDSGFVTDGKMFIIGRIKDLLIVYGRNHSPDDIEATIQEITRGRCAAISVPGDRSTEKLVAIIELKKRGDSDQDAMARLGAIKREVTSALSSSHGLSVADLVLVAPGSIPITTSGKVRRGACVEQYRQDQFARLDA
RNA-editing ligase 1, mitochondrial, sequence (P86926 whole entry): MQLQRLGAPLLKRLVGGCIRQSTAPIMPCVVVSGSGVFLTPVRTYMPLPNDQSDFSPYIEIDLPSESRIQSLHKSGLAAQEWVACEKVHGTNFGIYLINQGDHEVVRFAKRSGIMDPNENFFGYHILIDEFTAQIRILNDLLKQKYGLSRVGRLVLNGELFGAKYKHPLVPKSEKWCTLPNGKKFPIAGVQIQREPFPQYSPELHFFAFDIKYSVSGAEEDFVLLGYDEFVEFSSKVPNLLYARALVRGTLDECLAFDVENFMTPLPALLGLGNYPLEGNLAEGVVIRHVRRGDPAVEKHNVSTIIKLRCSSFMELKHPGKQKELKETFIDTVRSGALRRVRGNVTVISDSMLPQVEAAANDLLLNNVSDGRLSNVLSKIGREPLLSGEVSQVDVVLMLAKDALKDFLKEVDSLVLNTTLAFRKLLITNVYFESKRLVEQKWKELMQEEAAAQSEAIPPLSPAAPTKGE
Oxysterols receptor LXR-beta, sequence (P55055 whole entry, the tested form may be a part): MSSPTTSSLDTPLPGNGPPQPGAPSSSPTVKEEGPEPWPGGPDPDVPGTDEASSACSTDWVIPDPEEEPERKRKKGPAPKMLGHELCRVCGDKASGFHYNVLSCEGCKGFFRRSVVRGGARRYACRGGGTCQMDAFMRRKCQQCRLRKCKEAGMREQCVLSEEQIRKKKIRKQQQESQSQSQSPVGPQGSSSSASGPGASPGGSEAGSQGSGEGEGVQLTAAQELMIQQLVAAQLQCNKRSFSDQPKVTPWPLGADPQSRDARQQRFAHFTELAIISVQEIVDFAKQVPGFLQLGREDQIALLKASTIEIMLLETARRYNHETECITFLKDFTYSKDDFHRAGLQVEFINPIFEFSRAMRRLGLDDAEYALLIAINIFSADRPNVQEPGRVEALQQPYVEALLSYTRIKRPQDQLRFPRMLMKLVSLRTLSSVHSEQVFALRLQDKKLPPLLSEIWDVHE
Disintegrin and metalloproteinase domain-containing protein 17, sequence (P78536 whole entry, the tested form may be a part): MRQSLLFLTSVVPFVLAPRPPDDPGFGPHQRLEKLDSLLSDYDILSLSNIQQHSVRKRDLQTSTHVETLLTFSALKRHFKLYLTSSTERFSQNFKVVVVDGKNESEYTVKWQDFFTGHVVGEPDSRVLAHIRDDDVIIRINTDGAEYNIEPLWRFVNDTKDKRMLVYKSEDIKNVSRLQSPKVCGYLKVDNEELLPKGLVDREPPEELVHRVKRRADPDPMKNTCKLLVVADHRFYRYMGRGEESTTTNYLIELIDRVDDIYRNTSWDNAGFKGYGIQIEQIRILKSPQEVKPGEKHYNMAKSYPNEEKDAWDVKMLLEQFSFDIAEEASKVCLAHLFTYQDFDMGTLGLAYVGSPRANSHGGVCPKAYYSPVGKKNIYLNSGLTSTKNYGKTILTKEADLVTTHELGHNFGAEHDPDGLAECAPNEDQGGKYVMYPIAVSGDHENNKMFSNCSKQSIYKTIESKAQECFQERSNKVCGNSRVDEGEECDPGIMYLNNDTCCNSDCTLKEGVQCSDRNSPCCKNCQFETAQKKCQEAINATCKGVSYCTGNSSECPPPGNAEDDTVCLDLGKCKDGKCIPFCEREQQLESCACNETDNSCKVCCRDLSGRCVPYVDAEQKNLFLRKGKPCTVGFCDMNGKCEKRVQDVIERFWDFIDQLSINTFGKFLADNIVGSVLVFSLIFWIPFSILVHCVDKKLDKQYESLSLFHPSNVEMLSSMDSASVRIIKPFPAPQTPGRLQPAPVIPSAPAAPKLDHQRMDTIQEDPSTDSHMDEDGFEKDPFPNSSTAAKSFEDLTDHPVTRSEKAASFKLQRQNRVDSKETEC
ADP-ribosylation factor GTPase-activating protein 1, sequence (Q62848 whole entry, the tested form may be a part): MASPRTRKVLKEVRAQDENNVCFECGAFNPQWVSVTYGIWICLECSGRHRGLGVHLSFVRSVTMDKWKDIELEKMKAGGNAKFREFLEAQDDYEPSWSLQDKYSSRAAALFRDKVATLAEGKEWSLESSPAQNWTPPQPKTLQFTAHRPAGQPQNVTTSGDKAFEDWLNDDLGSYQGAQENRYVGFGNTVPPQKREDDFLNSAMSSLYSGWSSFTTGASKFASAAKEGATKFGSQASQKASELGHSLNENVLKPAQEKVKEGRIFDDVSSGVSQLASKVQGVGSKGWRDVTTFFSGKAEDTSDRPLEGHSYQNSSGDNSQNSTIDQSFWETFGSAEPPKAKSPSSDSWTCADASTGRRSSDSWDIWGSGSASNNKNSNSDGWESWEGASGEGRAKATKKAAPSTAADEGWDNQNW
Arf-GAP with SH3 domain, ANK repeat and PH domain-containing protein 1, sequence (Q9ULH1 whole entry, the tested form may be a part): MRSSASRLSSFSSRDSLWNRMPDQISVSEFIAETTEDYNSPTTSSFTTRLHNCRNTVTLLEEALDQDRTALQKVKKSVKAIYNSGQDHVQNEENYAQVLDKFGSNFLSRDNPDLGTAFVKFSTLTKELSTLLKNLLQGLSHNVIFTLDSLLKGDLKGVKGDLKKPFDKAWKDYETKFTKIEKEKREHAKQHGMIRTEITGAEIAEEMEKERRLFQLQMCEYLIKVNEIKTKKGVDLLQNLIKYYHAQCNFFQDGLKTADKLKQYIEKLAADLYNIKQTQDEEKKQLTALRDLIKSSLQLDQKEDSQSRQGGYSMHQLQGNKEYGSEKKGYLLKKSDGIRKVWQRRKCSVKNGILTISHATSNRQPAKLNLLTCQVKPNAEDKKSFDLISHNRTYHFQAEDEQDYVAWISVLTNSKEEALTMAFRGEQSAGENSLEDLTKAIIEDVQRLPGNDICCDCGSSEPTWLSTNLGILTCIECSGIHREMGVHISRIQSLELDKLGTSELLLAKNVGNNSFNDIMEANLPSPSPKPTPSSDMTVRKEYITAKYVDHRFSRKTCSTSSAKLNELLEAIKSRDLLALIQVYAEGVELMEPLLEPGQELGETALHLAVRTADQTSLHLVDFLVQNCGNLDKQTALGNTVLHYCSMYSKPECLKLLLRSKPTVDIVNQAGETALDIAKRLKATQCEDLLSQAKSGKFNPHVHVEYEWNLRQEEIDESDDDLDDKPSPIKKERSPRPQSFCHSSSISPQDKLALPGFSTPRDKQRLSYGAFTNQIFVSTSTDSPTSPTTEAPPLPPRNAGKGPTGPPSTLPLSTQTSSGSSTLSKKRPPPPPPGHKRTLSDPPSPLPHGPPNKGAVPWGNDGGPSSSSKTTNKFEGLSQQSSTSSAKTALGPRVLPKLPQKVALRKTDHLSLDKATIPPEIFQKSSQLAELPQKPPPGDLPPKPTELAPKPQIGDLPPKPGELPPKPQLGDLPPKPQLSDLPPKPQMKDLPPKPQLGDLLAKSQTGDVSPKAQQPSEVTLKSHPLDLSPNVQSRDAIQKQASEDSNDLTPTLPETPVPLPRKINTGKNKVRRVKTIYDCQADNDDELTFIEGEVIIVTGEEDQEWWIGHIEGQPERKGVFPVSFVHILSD
Photoreceptor-specific nuclear receptor, sequence (Q9Y5X4 whole entry, the tested form may be a part): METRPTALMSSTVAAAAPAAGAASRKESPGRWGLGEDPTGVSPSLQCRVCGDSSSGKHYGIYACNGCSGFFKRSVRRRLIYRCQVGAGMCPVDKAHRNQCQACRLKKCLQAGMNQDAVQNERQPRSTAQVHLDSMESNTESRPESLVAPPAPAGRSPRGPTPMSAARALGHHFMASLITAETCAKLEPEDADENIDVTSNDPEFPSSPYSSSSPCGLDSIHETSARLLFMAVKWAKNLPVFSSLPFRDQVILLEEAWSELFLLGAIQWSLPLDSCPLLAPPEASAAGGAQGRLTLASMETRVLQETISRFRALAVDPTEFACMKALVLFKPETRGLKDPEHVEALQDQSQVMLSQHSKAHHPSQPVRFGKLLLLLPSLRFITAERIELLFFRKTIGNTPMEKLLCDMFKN
Eukaryotic translation initiation factor 4E, sequence (P63073 whole entry): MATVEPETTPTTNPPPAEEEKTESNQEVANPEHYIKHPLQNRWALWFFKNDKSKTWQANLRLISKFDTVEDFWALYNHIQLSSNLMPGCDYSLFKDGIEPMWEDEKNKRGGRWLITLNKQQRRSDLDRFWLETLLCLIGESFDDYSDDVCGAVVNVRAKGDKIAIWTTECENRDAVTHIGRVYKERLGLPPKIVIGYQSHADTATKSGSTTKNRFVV
Paired box protein Pax-8, sequence (Q06710 whole entry): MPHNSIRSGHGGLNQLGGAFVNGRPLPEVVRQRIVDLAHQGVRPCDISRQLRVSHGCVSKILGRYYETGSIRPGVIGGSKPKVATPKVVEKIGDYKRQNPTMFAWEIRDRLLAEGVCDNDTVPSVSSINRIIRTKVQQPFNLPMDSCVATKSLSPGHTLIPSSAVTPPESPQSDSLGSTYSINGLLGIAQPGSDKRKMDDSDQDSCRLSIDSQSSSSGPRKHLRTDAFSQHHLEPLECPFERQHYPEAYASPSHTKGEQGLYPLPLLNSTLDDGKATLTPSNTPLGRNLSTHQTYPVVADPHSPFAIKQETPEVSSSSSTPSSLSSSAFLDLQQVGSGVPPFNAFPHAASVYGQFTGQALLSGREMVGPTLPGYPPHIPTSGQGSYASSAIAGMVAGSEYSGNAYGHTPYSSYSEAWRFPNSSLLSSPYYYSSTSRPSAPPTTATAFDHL

## CC(C)Oc1ccc(CC(=O)NN=C(S)Nc2ccccc2)cc1
[1]
  IC50: > 122 µM (inactive)

## COc1ccc(CN2C(=O)c3cccnc3C2Nc2cc(Cl)ccc2OC)cc1 (stereo not given)
[2]
  AC50: > 195 µM (inactive)
[3]
  IC50: 16.1 µM (inactive)
[4]
  IC50: 14.4 µM (active)

## Fc1cccc(Cl)c1/C=C/c1cnc2ccccc2n1
Cells [5]
  EC50: > 67.5 µM (inactive)
[6]
  EC50: > 67.5 µM (inactive)

## CCN(CC)CCCN(C(=O)c1ccco1)c1nc(-c2ccc(Cl)cc2)cs1
[7]
  AC50: 19.2 µM (active)
[8]
  EC50: 9.32 µM (active)
[9]
  AC50: 22.9 µM (active)
[10]
  EC50: 0.87 µM (active)
[11]
  AC50: 45.1 µM (active)

## CCCCN1C=C(C(=O)OC)C(c2ccccc2C(F)(F)F)C(C(=O)OC)=C1
[12]
  AC50: 8.63 µM (active)

## Cc1c(Cl)c(C(=O)NN=C(S)Nc2ccccc2)nn1C
[1]
  IC50: > 122 µM (inactive)

## CCc1nnc(NS(=O)(=O)c2ccc(N/C=C3/C(=O)NC(=O)N(c4ccccc4)C3=O)cc2)s1
Cells [13]
  IC50: 64.4 µM (inactive)

## Cc1cc2c(cc1C)NP(=S)(c1ccccc1)N2
Cells [5]
  EC50: > 67.6 µM (inactive)
[6]
  EC50: > 67.6 µM (inactive)

## Cc1c(N2C(=O)/C(=C/c3ccc(N(C)C)cc3)N(C)C2=S)c(=O)n(-c2ccccc2)n1C
[14]
  IC50: 36.2 µM (inactive)
[15]
  IC50: 19.5 µM (active)

## C=CCC[C@@H](Cc1ccc(F)cc1)C(=O)OC[C@@H]1CCCN1C(=O)[C@H](CC=C)CC(=O)N[C@H](CO)Cc1ccccc1
[16]
  IC50: 15.2 µM (inactive)
[17]
  IC50: > 69.5 µM (inactive)

## CCc1nc2ccc(C(=O)Nc3ccc4c(c3)OCC(=O)N4)cn2c1N(CC)Cc1cccc(Br)c1
[16]
  IC50: > 69.5 µM (inactive)
[17]
  IC50: > 69.5 µM (inactive)

## COc1ccc(C(=O)N2C=Cc3ccccc3C2C#N)cc1 (stereo not given)
[18]
  IC50: > 100 µM (inactive)
[19]
  IC50: 5.74 µM (active)

## Cn1c(=O)c2cc(NC(=S)NC3CCCCC3)ccc2n1Cc1ccc(Cl)cc1
[20]
  AC50: 58 µM (active)

## COc1cc2c(cc1NC(=O)c1ccccc1-c1ccccc1C(=O)O)-c1ccccc1C2
[20]
  AC50: > 100 µM (inactive)

## C[C@H](CO)N1C[C@H](C)[C@@H](CN(C)Cc2ccc(Cl)c(Cl)c2)Oc2ccc(NS(=O)(=O)c3ccccc3)cc2CC1=O
[21]
  AC50: 39.7 µM (active)
[22]
  AC50: 67.9 µM (active)
Paired box protein Pax-8
  AC50: 9.45 µM (active)

## O=C(NCc1ccncc1)C(=O)N/N=C/c1ccc(OCc2ccccc2)cc1
[23]
  IC50: 10.3 µM (inactive)
[24]
  IC50: 13.2 µM (inactive)

## C[C@H]1CCC/C=C/[C@@H]2C[C@H](O)C[C@H]2[C@H](O)[C@H]([S+]([O-])c2ccc(O)cc2)CC(=O)O1 (stereo not given in full)
[25]
  IC50: 2.05 µM (active)
[26]
  CC50: 4.03 µM (active)
[27]
  IC50: 231 µM (active)

## C=CCNC1=NC(c2ccccc2C(F)(F)F)C(C(=O)OC)=C(C)N1Cc1ccc(C(F)(F)F)cc1 (stereo not given)
[3]
  IC50: > 96.6 µM (inactive)
